Assay results published in patent publication US4262004A, “2,3-Dihydro-imidazo[2,1-b]benzothiazole compositions to treat depressions” (Janssen Pharmaceutica, N.V., priority 1979, dated 1981).
pIC50: −log10 of the molar value. Structures can show the parent of a compound that is named as a salt. Where two headings read alike, the source gives them in different places.

What was measured:
[1] = target: T1, monoamine oxidase (type B enzyme, β-phenylethylamine substrate) (Rattus norvegicus, UniProt P19643); assay: in-vitro monoamine oxidase inhibition, [14C]phenylethylamine hydrochloride as substrate; format: biochemical; details: monoamine oxidase extract of Wistar rat tissue, pH 7.4, 37° C., 20 minutes
T1 sequence (P19643 1-520): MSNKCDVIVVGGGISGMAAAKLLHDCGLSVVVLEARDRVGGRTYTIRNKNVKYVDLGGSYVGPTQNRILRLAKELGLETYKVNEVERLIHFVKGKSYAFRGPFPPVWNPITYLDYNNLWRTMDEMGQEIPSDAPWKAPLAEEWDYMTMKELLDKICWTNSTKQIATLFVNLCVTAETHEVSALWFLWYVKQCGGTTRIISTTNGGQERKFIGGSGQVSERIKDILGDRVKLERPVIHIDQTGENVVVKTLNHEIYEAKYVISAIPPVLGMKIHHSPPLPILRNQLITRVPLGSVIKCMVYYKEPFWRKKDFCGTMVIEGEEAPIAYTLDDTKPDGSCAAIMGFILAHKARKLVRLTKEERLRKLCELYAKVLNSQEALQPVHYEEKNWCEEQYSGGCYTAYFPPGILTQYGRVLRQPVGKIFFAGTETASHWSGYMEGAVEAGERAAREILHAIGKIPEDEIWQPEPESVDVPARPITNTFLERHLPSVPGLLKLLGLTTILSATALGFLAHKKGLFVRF

[2] = target: T2, monoamine oxidase (type A enzyme, tryptamine substrate) (Rattus norvegicus, UniProt P21396); assay: in-vitro monoamine oxidase inhibition, [14C]tryptamine as substrate; format: biochemical; details: Table I; monoamine oxidase extract of Wistar rat tissue, pH 7.4, 37° C., 20 minutes; read-out: I.C.50-value using as substrate [14C]tryptamine
T2 sequence (P21396 1-526): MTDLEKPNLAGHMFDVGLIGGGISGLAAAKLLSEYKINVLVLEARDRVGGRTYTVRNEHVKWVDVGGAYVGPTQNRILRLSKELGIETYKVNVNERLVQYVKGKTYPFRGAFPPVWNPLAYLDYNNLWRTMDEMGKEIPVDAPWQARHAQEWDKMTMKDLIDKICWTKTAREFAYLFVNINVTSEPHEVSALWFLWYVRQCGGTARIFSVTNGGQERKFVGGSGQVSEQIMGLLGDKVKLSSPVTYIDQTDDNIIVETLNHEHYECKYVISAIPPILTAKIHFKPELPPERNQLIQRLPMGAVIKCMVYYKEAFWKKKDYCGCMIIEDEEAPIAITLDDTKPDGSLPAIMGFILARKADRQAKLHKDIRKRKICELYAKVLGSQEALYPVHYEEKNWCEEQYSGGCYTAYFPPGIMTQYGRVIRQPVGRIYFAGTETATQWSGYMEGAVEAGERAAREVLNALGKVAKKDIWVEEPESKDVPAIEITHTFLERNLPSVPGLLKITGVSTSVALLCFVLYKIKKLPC

[3] = Table I, read-out: I.C.50-value using as substrate [14C]phenylethylamine . HCl

| pIC50 [1, 3] | pIC50 [2] | pIC50 ([1]; Table 2, read-out: I.C.50-value using as substrate [14C]phenylethylamine hydrochloride) | Structure (SMILES) |
| --- | --- | --- | --- |
| 4.26 | 6.10 | – | C#CCNc1ccc2c(c1)SC1=NCCN12 |
| – | 6.89 | – | CC(CO)Nc1ccc2c(c1)N1CCN=C1S2 (stereo not shown) |
| – | – | 5.74 | CCCCCCN(C=C(C(=O)OCC)C(=O)OCC)c1ccc2c(c1)SC1=[N+](CCCCCC)CCN12 |
| 5.22 | 5.60 | – | CCCc1ccc2c(c1)SC1=NC(c3ccccc3)CN12 (stereo not shown) [2-C6 H5,7-C3 H7] |
| 5.40 | 8.22 | – | c1ccc2c3c(ccc2c1)SC1=NCCN13 [5,6-(CHCHCHCH)] |
| 4.92 | 7.26 | – | c1c2c(cc3c1SC1=NCCN13)CCC2 [6,7-(CH2)3] |
| 5.00 | 6.85 | – | CCc1ccc2c(c1)N1CCN=C1S2 [6-C2 H5] |
| 5.52 | 6.66 | – | O=C(c1ccccc1)c1ccc2c(c1)N1CCN=C1S2 [6-COC6 H5, (2,3-dihydroimidazo[2,1-b]benzothiazol-6-yl)phenylmethanone monohydrochloride] |
| 4.40 | 7.74 | – | CCNc1ccc2c(c1)N1CCN=C1S2 [6-NHC2 H5, N-ethyl-2,3-dihydroimidazo[2,1-b]benzothiazol-6-amine] |
| 7.15 | 7.59 | – | Clc1ccc(CNc2ccc3c(c2)N2CCN=C2S3)cc1 [6-NHCH2(4-ClC6 H4)] |
| 5.74 | 8.22 | – | CCC(CC)Nc1ccc2c(c1)N1CCN=C1S2 [6-NHCH(C2 H5)2] |
| 4.47 | 7.74 | – | CC(C)Nc1ccc2c(c1)N1CCN=C1S2 [6-NHi . C3 H7, 2,3-dihydro-N-(1-methylethyl)imidazo[2,1-b]benzothiazol-6-amine] |
| 7.40 | 7.70 | – | CCCCCCc1ccc2c(c1)SC1=NCCN12 [7-C6 H13] |
| 5.66 | 6.66 | – | CCCN(C=C(C(=O)OCC)C(=O)OCC)c1ccc2c(c1)SC1=NCCN12 [7-N(C3 H7)CHC(COOEt)2] |
| 4.35 | 7.00 | – | CCNc1ccc2c(c1)SC1=NCCN12 [7-NHC2 H5] |
| 7.15 | 4.70 | – | COc1cc(CNc2ccc3c(c2)SC2=NCCN23)cc(OC)c1OC [7-NHCH2 [3,4,5-(OCH3)3C6 H2]] |
| 7.52 | 5.47 | – | CCOC(=O)C(=CNc1ccc2c(c1)SC1=NCCN12)C(=O)OCC [7-NHCHC(COOEt)2, diethyl 2-[(2,3-dihydroimidazo[2,1-b]benzothiazol-7-yl-amino)methylene]propanedioate] |
| 7.02 | 6.35 | – | c1ccc(Oc2ccc3c(c2)SC2=NCCN23)cc1 [7-OC6 H5] |
| 7.19 | 7.92 | – | c1cc2c(cc1C1CCCCC1)SC1=NCCN12 [7-c . C6 H 11] |
| 4.40 | 8.70 | – | CCNc1cccc2c1SC1=NCCN12 [8-NHC2 H5] |
| 5.40 | 6.66 | – | Cc1cccc2c1N1CCN=C1S2 [Example 5-CH3] |
| 6.22 | 6.92 | – | Clc1cccc2c1N1CCN=C1S2 [Example 5-Cl] |
| 4.07 | 5.74 | – | CC(=O)Nc1ccc2c(c1)N1CCN=C1S2 [Example 6-NHCOCH3, N-(2,3-dihydroimidazo[2,1-b]benzothiazol-6-yl)acetamide] |
| 4.92 | 5.80 | – | NC(=O)Nc1ccc2c(c1)N1CCN=C1S2 [Example 6-NHCONH2, N-(2,3-dihydroimidazo[2,1-b]benzothiazol-6-yl)urea] |
| 4.85 | 6.55 | – | COc1ccc2c(c1)SC1=NCCN12 [Example 7-OCH3] |
| – | 5.70 | – | Oc1ccc2c(c1)SC1=NCCN12 [Example 7-OH, 2,3-dihydroimidazo[2,1-b]benzothiazol-7-ol monohydrobromide] |
